Values after ≈ are worked out from the molar mass of the structure shown. Like-named read-outs stand apart in the source and are kept apart here.
Experiments:
[1] = Solubility Determination Assay in PBS pH 1.6 and pH 7.4; assay type: physicochemical; conditions: PBS buffer, aqueous buffer, kinetic from dmso stock
Experimental: The stock solutions of test compounds and control compound progesterone were prepared in DMSO at the concentrations of 10 mM. 15 μL of stock solution (10 mM) of each sample was placed in order into their proper 96-well rack. 485 μL of PBS pH 1.6 and pH 7.4 were added into each vial of the cap-less Solubility Sample plate. The assay was performed in singlet. One stir stick was added to each vial and then the vial was sealed using a molded PTFE/Silicone plug. […] After completion of the 2 hours, plugs were removed and the stir sticks were removed using a big magnet. The samples from the Solubility Sample plate were transferred into the filter plate. Using the Vacuum Manifold, all the samples were filtered. An aliquot of 5 μL was taken from the filtrate followed by addition of 495 μL of a mixture of H2O and acetonitrile containing internal standard (1:1). A certain proportion of ultrapure water was used to dilute the diluent according to the peak shape. The dilution factor was changed according to the solubility values and the LC-MS signal response.
From the 10 mM DMSO STD plate, 6 μL was transferred into the remaining empty plate, and then 194 μL of DMSO were added to that plate to have a STD concentration of 300 μM. From the 300 μM DMSO STD plate, 5 μL were transferred into the remaining empty plate, and then 495 μL of a mixture of H2O and acetonitrile containing internal standard (1:1) were added to that plate to have a final STD concentration of 3 μM. A certain proportion of ultrapure water was used to dilute the diluent according to the peak shape. The concentrations of the standard samples were changed according to the LC-MS signal response.
The plate was placed into the well plate autosampler. The samples were evaluated by LC-MS/MS analysis.
All calculations were carried out using Microsoft Excel.
The filtrate was analyzed and quantified against a standard of known concentration using LC coupled with mass spectral peak identification and quantitation. Solubility values of the test compound and control compound were calculated as follows: […]
Any value of the compounds that was not within the specified limits was rejected and the experiment was repeated.
“+++” indicates a solubility value equal to or greater than 1 μM, “++” indicates a solubility value between 0.1 and 1 μM, and “+” indicates a solubility value less than 0.1 μM.

[2] = target: T1, AHR (Homo sapiens, UniProt P35869); assay: DRE-Luciferase Reporter Assay, HepG2 AhR-Lucia reporter cells; assay type: cell-based; conditions: with AHR activating ligand at EC50, read-out: HepG2-Luc IC50
T1 construct: other cell line with a DRE-luciferase reporter stably transfected; endogenous in cells; host or cells: HepG2 AhR-Lucia reporter cells
T1 sequence (P35869 11-848): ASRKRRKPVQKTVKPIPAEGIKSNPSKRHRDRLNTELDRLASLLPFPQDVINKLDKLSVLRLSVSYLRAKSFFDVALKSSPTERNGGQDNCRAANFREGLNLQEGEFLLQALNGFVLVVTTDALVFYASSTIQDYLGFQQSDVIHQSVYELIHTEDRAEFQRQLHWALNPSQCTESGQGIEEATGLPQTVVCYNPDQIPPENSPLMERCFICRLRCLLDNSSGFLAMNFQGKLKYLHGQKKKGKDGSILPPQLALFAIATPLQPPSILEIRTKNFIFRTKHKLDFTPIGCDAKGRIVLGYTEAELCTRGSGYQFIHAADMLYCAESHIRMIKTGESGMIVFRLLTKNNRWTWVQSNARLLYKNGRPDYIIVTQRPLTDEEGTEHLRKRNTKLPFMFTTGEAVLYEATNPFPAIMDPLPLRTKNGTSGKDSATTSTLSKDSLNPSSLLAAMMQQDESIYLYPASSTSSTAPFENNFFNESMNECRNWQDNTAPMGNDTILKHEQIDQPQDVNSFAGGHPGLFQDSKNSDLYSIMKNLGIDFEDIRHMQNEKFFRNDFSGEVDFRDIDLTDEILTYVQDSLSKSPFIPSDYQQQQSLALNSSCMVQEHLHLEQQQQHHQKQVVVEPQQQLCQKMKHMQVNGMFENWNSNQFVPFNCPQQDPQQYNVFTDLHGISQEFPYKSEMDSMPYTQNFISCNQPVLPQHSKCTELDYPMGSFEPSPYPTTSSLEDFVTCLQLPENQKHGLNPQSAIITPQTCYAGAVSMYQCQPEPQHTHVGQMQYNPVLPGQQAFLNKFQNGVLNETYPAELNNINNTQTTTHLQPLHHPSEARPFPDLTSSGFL
Summary of the method: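 DRE-luciferase reporter cells (e.g. HepG2 AhR-Lucia, 20000 cells) treated with antagonist log dilutions from 100 uM, then an AHR agonist (e.g. TCDD, kynurenine, ITE, FICZ) at its EC50 added after 1 hr. Secreted luciferase measured after 24 or 48 h (QUANTI-Luc); IC50 = concentration halving luciferase activity.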

[3] = PBS pH 1.6, 25° C., read-out: Aq. Solubility at pH = 1.6
[4] = PBS pH 7.4, 25° C., read-out: Aq. Solubility at pH = 7.4

SMILES | solubility at 2 h [1, 3] | solubility at 2 h [1, 4] | IC50 [2]
O=c1c2cc(-c3ccc(Cl)cc3)nc(-c3cccnc3)c2ncn1C[C@@H](O)C(F)(F)F (single isomer, unassigned) [185 enantiomer 1] | ≥ 1 µM | 0.1 to 1 µM (≈ 0.0447 to 0.447 µg/mL) | < 100 nM
O=c1c2cc(-c3ccc(Cl)cc3)nc(-c3cccnc3)c2ncn1C[C@H](O)C(F)(F)F (single isomer, unassigned) [185 enantiomer 2] | ≥ 1 µM | 0.1 to 1 µM (≈ 0.0447 to 0.447 µg/mL) | < 100 nM
O=c1c2cc(-c3ccc(Cl)cc3)nc(-c3cccnc3)c2ncn1[C@@H]1COC[C@@H]1O (stereo in doubt) [Compound 71] | ≥ 1 µM | ≥ 1 µM | < 100 nM
C[C@@H](CO)n1cnc2c(-c3cncc(F)c3)nc(-c3ccc(OC(F)(F)F)cc3)cc2c1=O [Compound 1, (S)-8-(5-fluoropyridin-3-yl)-3-(1-hydroxypropan-2-yl)-6-(4-(trifluoromethoxy)phenyl)pyrido[3,4-d]pyrimidin-4(3H)-one] | – | 0.1 to 1 µM (≈ 0.046 to 0.46 µg/mL) | < 100 nM
C[C@@H](CO)n1cnc2c(-c3cccc(F)c3)nc(-c3ccc(Cl)cc3)cc2c1=O [Compound 7] | 0.1 to 1 µM (≈ 0.041 to 0.41 µg/mL) | < 0.1 µM | < 100 nM
C[C@@H](CO)n1cnc2c(-c3cccc(F)c3)nc(-c3ccc(C(F)(F)F)nc3)cc2c1=O [Compound 8] | – | ≥ 1 µM | < 100 nM
CC(C)(O)Cn1cnc2c(-c3cccnc3)nc(-c3ccc(C(F)(F)F)nc3)cc2c1=O [Compound 9] | ≥ 1 µM | ≥ 1 µM | < 100 nM
C[C@@H](CO)n1cnc2c(-c3cccnc3)nc(-c3ccc(C(F)(F)F)nc3)cc2c1=O [Compound 12] | ≥ 1 µM | ≥ 1 µM | < 100 nM
CC(C)(O)Cn1cnc2c(-c3cccnc3)nc(-c3ccc(C(F)(F)F)cc3)cc2c1=O [Compound 16] | ≥ 1 µM | ≥ 1 µM | < 100 nM
Cc1ccc(-c2cc3c(=O)n([C@@H](C)CO)cnc3c(-c3cccnc3)n2)cc1 [Compound 17, (S)-3-(1-hydroxypropan-2-yl)-8-(pyridin-3-yl)-6-(p-tolyl)pyrido[3,4-d]pyrimidin-4(3H)-one] | ≥ 1 µM | ≥ 1 µM | < 100 nM
CC(C)(O)Cn1cnc2c(-c3cccnc3)nc(-c3ccc(Cl)cc3)cc2c1=O [Compound 18] | ≥ 1 µM | ≥ 1 µM | < 100 nM
Cn1cc(-c2nc(-c3ccc(Cl)cc3)cc3c(=O)n(CC(C)(C)O)cnc23)cn1 [Compound 21] | ≥ 1 µM | ≥ 1 µM | < 100 nM
C[C@@H](CO)n1cnc2c(-c3cccnc3)nc(-c3ccc(OC(F)(F)F)cc3)cc2c1=O [Compound 22] | ≥ 1 µM | ≥ 1 µM | < 100 nM
C[C@@H](CO)n1cnc2c(-c3cccnc3)nc(-c3ccc(C(F)(F)F)cc3)cc2c1=O [Compound 23] | ≥ 1 µM | ≥ 1 µM | < 100 nM
C[C@@H](CO)n1cnc2c(-c3cnn(C)c3)nc(-c3ccc(OC(F)(F)F)cc3)cc2c1=O [Compound 25] | 0.1 to 1 µM (≈ 0.0445 to 0.445 µg/mL) | < 0.1 µM | < 100 nM
C[C@@H](CO)n1cnc2c(-c3cnn(C)c3)nc(-c3ccc(Cl)cc3)cc2c1=O [Compound 27] | 0.1 to 1 µM (≈ 0.0396 to 0.396 µg/mL) | 0.1 to 1 µM (≈ 0.0396 to 0.396 µg/mL) | < 100 nM
C[C@H](n1cnc2c(-c3cnn(C)c3)nc(-c3ccc(Cl)cc3)cc2c1=O)C(C)(C)O [Compound 30] | – | 0.1 to 1 µM (≈ 0.0424 to 0.424 µg/mL) | < 100 nM
C[C@@H](n1cnc2c(-c3cnn(C)c3)nc(-c3ccc(Cl)cc3)cc2c1=O)C(C)(C)O [Compound 31] | – | 0.1 to 1 µM (≈ 0.0424 to 0.424 µg/mL) | < 100 nM
C[C@@H](n1cnc2c(-c3cccnc3)nc(-c3ccc(Cl)cc3)cc2c1=O)C(C)(C)O [Compound 33] | – | < 0.1 µM | < 100 nM
C[C@H](n1cnc2c(-c3cccnc3)nc(-c3cccnc3)cc2c1=O)C(C)(C)O [Compound 34] | ≥ 1 µM | ≥ 1 µM | < 100 nM
C[C@@H](CO)n1cnc2c(-n3ccnc3)nc(-c3ccc(OC(F)(F)F)cc3)cc2c1=O [Compound 44, (S)-3-(1-hydroxypropan-2-yl)-8-(1H-imidazol-1-yl)-6-(4-(trifluoromethoxy)-phenyl)pyrido[3,4-d]pyrimidin-4(3H)-one] | – | 0.1 to 1 µM (≈ 0.0431 to 0.431 µg/mL) | < 100 nM
C[C@@H](CO)n1cnc2c(-c3cccnc3)nc(-c3ccc(C(F)(F)F)cn3)cc2c1=O [Compound 46, (S)-3-(1-hydroxypropan-2-yl)-8-(pyridin-3-yl)-6-(5-(trifluoromethyl)pyridin-2-yl)pyrido[3,4-d]pyrimidin-4(3H)-one] | ≥ 1 µM | ≥ 1 µM | < 100 nM
C[C@@H](CO)n1cnc2c(-c3cccc(F)c3)nc(-c3ccc(C(F)(F)F)cn3)cc2c1=O [Compound 47, (S)-8-(3-fluorophenyl)-3-(1-hydroxypropan-2-yl)-6-(5-(trifluoromethyl)pyridin-2-yl)pyrido[3,4-d]pyrimidin-4(3H)-one] | – | 0.1 to 1 µM (≈ 0.0444 to 0.444 µg/mL) | < 100 nM
C[C@@H](CO)n1cnc2c(-c3cccnc3)nc(-c3ccc(OC(F)(F)F)nc3)cc2c1=O [Compound 50] | ≥ 1 µM | ≥ 1 µM | < 100 nM
CC(C)(O)Cn1cnc2c(-c3cn[nH]c3)nc(-c3ccc(C(F)(F)F)nc3)cc2c1=O [Compound 51] | 0.1 to 1 µM (≈ 0.043 to 0.43 µg/mL) | 0.1 to 1 µM (≈ 0.043 to 0.43 µg/mL) | < 100 nM
CC(C)(O)Cn1cnc2c(-c3cnsc3)nc(-c3ccc(C(F)(F)F)nc3)cc2c1=O [Compound 54] | ≥ 1 µM | ≥ 1 µM | < 100 nM
C[C@@H](CO)n1cnc2c(-c3cnsc3)nc(-c3ccc(C(F)(F)F)nc3)cc2c1=O [Compound 55] | ≥ 1 µM | ≥ 1 µM | < 100 nM

Reference: US20230295152A1 (SENDA BIOSCIENCES, INC., priority 2019, published 2023)
